# Reference: US7098307B2, “Neo-tryptophan” (Mayo Foundation for Medical Education and Research, priority 1998, dated 2006)
# Read-outs that look alike come from different tables or passages of the source. Numbered stars: 1 amine (or outer) side, 2 acyl side, 3 side chain; on linkers, the order of the positions; unused ones are H or OH. Square brackets hold non-standard residues; d marks the D form. Ends that are not written are not given here. Peptide text beside a SMILES is read from it. Ala(indol-4-yl) = N[C@@H](Cc1cccc2[nH]ccc12)C(=O)O; X1 = O=C([C@@H](Cc1cccc2[nH]ccc12)N[*:1])[*:2]; NMeR = CN[C@@H](CCCNC(=N)N)C(=O)O; Tle = CC(C)(C)[C@H](N)C(=O)O; dOrn = NCCC[C@@H](N)C(=O)O; Dab = NCC[C@H](N)C(=O)O
# Legend:
# [1] = Hot plate test (antinociception, % MPE) in rats; conditions: for Peak % MPE / time of Peak % MPE: rats; for induction of antinociception (hot plate): intraperitoneal administration (NT64L 1 mg/kg); for peak % MPE value: 18 nmol injected into the PAG, at 30 minutes
# rat NTR1 = biological target: T1, rat NTR1 (Rattus norvegicus, UniProt P20789); assay: Competition binding with [3H]NT, membranes of CHO-K1 cells transfected with rat NTR1
# T1 construct: expressed in transfected cells; host or cells: CHO-K1
# Experimental: (§1) CHO-K1 cells were stably transfected with nucleic acid encoding either the human NTR1 or the rat NTR1, and cultured in 150 mm petri plates with 35 mL of Dulbecco-modified Eagle's medium containing 100 μM minimal essential medium nonessential amino acids (GIBCO) supplemented with 5% (v/v) FetalClone II bovine serum product (Hyclone Labs, Logan, Utah). CHO cells (subculture 9–19) were harvested at confluency. Briefly, the medium from each plate was removed by aspiration, and the cells washed with 6 mL of 50 mM Tris-HCl (pH 7.4) and resuspended in 5–10 mL of Tris-HCl by scraping the cells with a rubber spatula. The resuspended cells were placed into a centrifuge tube and collected by centrifugation at 300× g for five minutes at 4° C. in a GPR centrifuge (Beckman Instruments, Fullerton, Calif.). The cellular pellet (in 50 mM Tris-HCl, 1 mM EDTA, pH 7.4) was stored at […] until radioligand binding was performed.
# (§2) The supernatant was decanted and discarded, and the cellular pellet was resuspended in 2 mL of Tris-HCl, 1 mM EDTA (pH 7.4) followed by homogenization with a Brinkmann Polytron at setting 6 for ten seconds. Centrifugation was repeated as above and the supernatant was decanted and discarded. The resulting final cellular pellet was resuspended in 50 mM Tris-HCl, lmM EDTA, 0.1% bovine serum albumin, and 0.2 mM bacitracin.
# (§3) Incubation was at 20° C. for 30 minutes. Each reaction was terminated by addition of cold 0.9% NaCl (5×1.5 mL) followed by rapid filtration through a GF/B filter strip that had been pretreated with 0.2% polyethylenimine.
# [2] = Body temperature (hypothermia) in rats; conditions: for Peak BT change / time of Peak BT change: rats; for induction of hypothermia: intraperitoneal administration (NT64L 1 mg/kg); for peak body temperature reduction: 18 nmol injected into the PAG, at 30 minutes
# human NTR1 = biological target: T2, human NTR1 (Homo sapiens, UniProt P30989); assay: Competition binding with [3H]NT, membranes of CHO-K1 cells transfected with human NTR1
# T2 construct: expressed in transfected cells; host or cells: CHO-K1
# Experimental: as §1, §2, §3
# [3] = Degradation in rat intestinal preparation; type: in vitro ADME; conditions: pH 7.4, 37° C., read-out: half-time, Rat Intestinal Preparation (converted)
# Experimental: For intestinal preparations, rats were sacrificed by decapitation, and the small intestines removed. The tissue was washed with ice-cold PBS (10 mM, pH 7.4). About […] of intestinal tissue was added to about 10 mL of PBS and homogenized using a Brinkman polytron homogenizer (setting 6). After homogenization, 10 mL of PBS was added to 10 mL of the intestinal homogenate. […] The supernatant was removed and stored at −20° C. until testing. Immediately before incubation with the polypeptide, the intestinal preparation was filtered through a 0.2 μm filter. Testing procedures were similar to those for the plasma tests.
# (§4) For the degradation studies, data were plotted in linear form as a semi-log plot with SigmaPlot for Windows Version 4.00. Linear regression on these plots provided the parameters used to calculate the half-time (t1/2) for degradation of each polypeptide. The correlation coefficient (R) for the linear regression was taken as a measure of the goodness-of-fit.
# [4] = Degradation in human plasma (HPLC peak area); type: in vitro ADME; conditions: for half-life at 0.5 mg/mL: human
# From the text: as §4
# [5] = Degradation in rat plasma (HPLC peak area); type: in vitro ADME
# From the text: as §4
# 5HT2A receptor = 5HT2A receptor (Homo sapiens, UniProt P28223); assay: Competitive binding with [3H]ketanserin, human brain tissue; conditions: for competition with labeled ketanserin for binding at the 5HT2A receptor: human brain tissue
# [6] = Catalepsy bar test in rats; type: in vivo, rat
# Experimental: The following experiments were performed to assess the ability of NT69L to cause and influence catalepsy. Male Sprague-Dawley rats (150–250 g) or CD-1 mice (24–26 g) were housed in a temperature-controlled room in groups of five with free access to food and water. The animals were kept on a 12 hour light/dark cycle, and all tests were performed during the light cycle. […] Thirty minutes after injection, the animals were tested for catalepsy. For rats, the test involved simply placing the animal's fore paws on a suspended metal bar 10 mm in diameter, 11 cm above the counter. The time elapsed until the animal's fore paws touch the counter was recorded. […] The cut-off time was 20 seconds, and each animal was tested three times for each time point.
# [7] = 0.5 mg/kg intraperitoneal (footnote)
# [8] = 25% plasma, 37° C., 0.5 mg/mL polypeptide, read-out: half-time, Plasma Human (converted)
# [9] = CHO cells, read-out: Kd hNTR (Table VII)
molecule,measurement,setting,value
CC(C)C[C@H](NC(=O)[C@@H](NC(=O)[C@@H](Cc1cccc2[nH]ccc12)NC(=O)[C@@H]1CCCN1C(=O)[C@H](CCCNC(=N)N)NC(=O)[C@H](N)CCCCN)C(C)(C)C)C(=O)O [NT66D] (H-[dK]RP[X1][Tle]L-OH; N-terminus and C-terminus assumed),Peak % MPE,[1]; [7],58% @
same,time of Peak % MPE,[1]; [7],30 min
same,induction of antinociception (hot plate),[1],did induce
same,Kd,rat NTR1,77 ± 9 nM
same,Peak BT change,[2]; [7],−1.0 @ ° C.
same,time of Peak BT change,[2]; [7],30 min
same,induction of hypothermia,[2],did induce
same,Kd,human NTR1,210 ± 20 nM
CC(C)C[C@H](NC(=O)[C@@H](NC(=O)[C@H](Cc1cccc2[nH]ccc12)NC(=O)[C@@H]1CCCN1C(=O)[C@H](N)CCCCN)C(C)(C)C)C(=O)O [NT72] (H-[dK]P[Ala(indol-4-yl)][Tle]L-OH; N-terminus and C-terminus assumed),Peak % MPE,[1]; 5 mg/kg intraperitoneal,100% @
same,time of Peak % MPE,[1]; 5 mg/kg intraperitoneal,120 min
same,induction of antinociception (hot plate),[1],did induce
same,Kd,rat NTR1,270 ± 30 nM
same,Peak BT change,[2]; 5 mg/kg intraperitoneal,−2.8 @ ° C.
same,time of Peak BT change,[2]; 5 mg/kg intraperitoneal,180 min
same,induction of hypothermia,[2],did induce
same,Kd,human NTR1,640 nM
same,half-life,[3],54 h
same,half-life at 0.5 mg/mL,[4]; [8],3000 h
"NCCc1c[nH]c2ccc(O)cc12 [Serotonin, reference compound]",Kd,"rat NTR1; CHO cells, read-out: Kd rNTR (Table VII)",> 100000 nM
same,Kd,human NTR1; [9],> 100000 nM
CC(C)C[C@H](NC(=O)[C@@H](NC(=O)[C@H](Cc1cccc2[nH]ccc12)NC(=O)[C@@H]1CCCN1C(=O)[C@@H](N)CCN)C(C)(C)C)C(=O)O [NT74] (H-[Dab]P[Ala(indol-4-yl)][Tle]L-OH; N-terminus and C-terminus assumed),half-life at 0.5 mg/mL,[5]; plasma,110 h
"CC[C@H](C)[C@H](NC(=O)[C@H](Cc1ccc(O)cc1)NC(=O)[C@@H]1CCCN1C(=O)[C@H](CCCNC(=N)N)NC(=O)[C@H](N)CCCCN)C(=O)N[C@@H](CC(C)C)C(=O)O [NT2, reference compound] (H-[dK]RPYIL-OH; N-terminus and C-terminus assumed)",competition with labeled ketanserin for binding at the 5HT2A receptor,5HT2A receptor,found to compete
same,"half-time, Plasma Human",[4],about 0.85 hours
same,half-life at 0.5 mg/mL,[4]; plasma,0.85 h
CN[C@@H](CCCNC(=N)N)C(=O)N[C@@H](CCN)C(=O)N1CCC[C@H]1C(=O)N[C@@H](Cc1cccc2[nH]ccc12)C(=O)N[C@H](C(=O)N[C@@H](CC(C)C)C(=O)O)C(C)(C)C [NT71] (H-[NMeR][Dab]P[Ala(indol-4-yl)][Tle]L-OH; N-terminus and C-terminus assumed),Peak % MPE,[1]; 1 mg/kg intraperitoneal,70% @
same,time of Peak % MPE,[1]; 1 mg/kg intraperitoneal,60 min
same,Peak % MPE,[1]; 5 mg/kg intraperitoneal,79% @
same,time of Peak % MPE,[1]; 5 mg/kg intraperitoneal,180 min
same,induction of antinociception (hot plate),[1],did induce
same,half-life at 0.5 mg/mL,"[5]; 25% plasma, 37° C., 0.5 mg/mL polypeptide, read-out: half-time, Plasma Rat (converted)",260 h
same,Peak BT change,[2]; 1 mg/kg intraperitoneal,−2.0 @ ° C.
same,time of Peak BT change,[2]; 1 mg/kg intraperitoneal,40 min
same,Peak BT change,[2]; 5 mg/kg intraperitoneal,−2.4 @ ° C.
same,time of Peak BT change,[2]; 5 mg/kg intraperitoneal,90 min
same,induction of hypothermia,[2],did induce
same,half-life,[3],5.1 h
NT24″27″: L-Arg-D-Orn-L-Pro-L-Tyr-L-Ile-L-Leu (R[dOrn]PYIL) [reference compound],peak % MPE value,[1],20%
same,induction of antinociception (hot plate),[1],did not induce
same,peak body temperature reduction,[2],1.1 °C
same,induction of hypothermia,[2],did not induce
"O=C(CCCN1CCC(O)(c2ccc(Cl)cc2)CC1)c1ccc(F)cc1 [Haloperidol, reference compound]",catalepsy,[6]; 1 mg/kg ip,profound catalepsy
same,ED50 at 30 min,"[6]; male, Sprague-Dawley, rat, in vivo, ip, at 30 minutes, read-out: ED50 haloperidol-induced catalepsy",0.13 mg/kg
same,ED50 at 60 min,"[6]; male, Sprague-Dawley, rat, in vivo, ip, at 60 minutes, read-out: ED50 haloperidol-induced catalepsy",0.26 mg/kg
same,ED50 at 180 min,"[6]; male, Sprague-Dawley, rat, in vivo, ip, at 180 minutes, read-out: ED50 haloperidol-induced catalepsy",0.31 mg/kg
CC[C@H](C)[C@H](NC(=O)[C@H](Cc1cccc2[nH]ccc12)NC(=O)[C@@H]1CCCN1C(=O)[C@H](N)CCCCN)C(=O)N[C@@H](CC(C)C)C(=O)O [NT73] (H-[dK]P[Ala(indol-4-yl)]IL-OH; N-terminus and C-terminus assumed),Peak % MPE,[1]; 5 mg/kg intraperitoneal,40% @
same,time of Peak % MPE,[1]; 5 mg/kg intraperitoneal,120 min
same,induction of antinociception (hot plate),[1],did induce
same,Kd,rat NTR1,32 ± 6 nM
same,Peak BT change,[2]; 5 mg/kg intraperitoneal,−0.9 @ ° C.
same,time of Peak BT change,[2]; 5 mg/kg intraperitoneal,90 min
same,induction of hypothermia,[2],did induce
same,Kd,human NTR1,45 ± 3 nM
same,half-life,[3],0.83 h
same,half-life at 0.5 mg/mL,[4]; [8],300 h
"CN1CCN(C2=Nc3cc(Cl)ccc3Nc3ccccc32)CC1 [Clozapine, reference compound]",catalepsy,[6]; 20 mg/kg ip,did not cause catalepsy
same,Kd,human NTR1; [9],> 100000 nM
CC[C@H](C)[C@H](NC(=O)[C@H](Cc1cccc2[nH]ccc12)NC(=O)[C@@H]1CCCN1C(=O)[C@H](CCCNC(=N)N)NC(=O)[C@@H](N)CCCNC(=N)N)C(=O)N[C@@H](CC(C)C)C(=O)O [NT64L],Kd,5HT2A receptor,6600 nM
same,competition with labeled ketanserin for binding at the 5HT2A receptor,5HT2A receptor,found to compete
same,peak % MPE value,[1],76%
same,induction of antinociception (hot plate),[1],did not induce
same,peak body temperature reduction,[2],2.1 °C
same,induction of hypothermia,[2],did not induce
same,half-life at 0.5 mg/mL,[4]; [8],1.4 h
CC[C@H](C)[C@H](NC(=O)[C@H](Cc1cccc2[nH]ccc12)NC(=O)[C@@H]1CCCN1C(=O)[C@@H](N)CCN)C(=O)N[C@@H](CC(C)C)C(=O)O [NT75] (H-[Dab]P[Ala(indol-4-yl)]IL-OH; N-terminus and C-terminus assumed),half-life at 0.5 mg/mL,[5]; plasma,1.6 h
same,half-life,[3],0.27 h
"N[C@@H](Cc1cccc2[nH]ccc12)C(=O)O [L-neo-Trp, (2S)-2-amino-3-(1H-4-indolyl)propanoic acid]",Kd,5HT2A receptor,> 100000 nM
same,competition with labeled ketanserin for binding at the 5HT2A receptor,5HT2A receptor,did not compete
same,binding to human NT receptors from CHO cells,human NTR1,does not bind
same,Kd,human NTR1; [9],> 100000 nM
CC(C)C[C@H](NC(=O)[C@@H](NC(=O)[C@H](Cc1cccc2[nH]ccc12)NC(=O)[C@@H]1CCCN1C(=O)[C@H](CCCNC(=N)N)NC(=O)[C@@H](N)CCCNC(=N)N)C(C)(C)C)C(=O)O [NT65L] (H-RRP[Ala(indol-4-yl)][Tle]L-OH; N-terminus and C-terminus assumed),reduction in binding affinity compared to NT64L,human NTR1; NT receptor binding,3 fold
same,half-life at 0.5 mg/mL,[4]; plasma,1.1 h
